SMILES strings stand for the structures. Several values for one entry are separate records, joined by “and”; a condition that tells them apart may be missing. Identical values can stand only once.

The subject of this experiment is NCI-H23 complex spheroids with HUVEC/MSC, viability. The experiment in a line: Anticancer human tumor NCI-H23 cell line growth inhibition [RAS].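 As to all read-outs here: spheroids exposed to compound for 7 days.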 The settings on record: for viability, T/C: stronger effect = lower value. The source says:
RAS pathway inhibitors in Combinations in Complex Spheroids
A high-throughput screen of multi-cell type tumor spheroids was designed to identify active combinations of RAS pathway inhibitors and targeted small molecules. Complex spheroids include a stromal component modeled by human endothelial cells (HUVEC) and fibroblasts modeled by human mesenchymal stem cells (MSCs). The concentration ranges selected for each drug and investigational agent were based upon clinically achievable concentrations if the clinical Cmax of the agent was known.
Compounds. The drugs and investigational agents: abemaciclib (NSC768073), cobimetinib (NSC768068), divarasib (GDC6063, NSC841802), docetaxel (NSC628503), GDC-1971 (RLY-1971, NSC841576), gemcitabine (NSC613327), inavolisib (NSC800729), ipatasertib (NSC767898), KB-0742 (NSC834161), MRTX-1133 (NSC836407), osimertinib (NSC779217), RMC-4630 (NSC839698), RMC-6236 (NSC851965), RMC-6291 (NSC852671), Ro-3306 (NSC812927), sapanisertib (NSC764658), SN-38 (NSC673596), staurosporine (NSC755774), SY5609 (NSC837396), and tovorafenib (DAY101, NSC766906), were obtained from the National Cancer Institute (NCI) Developmental Therapeutics Program Chemical Repository. The FDA-approved anticancer drug set is available from the NCI Developmental Therapeutics Program. […] The stock solutions were prepared in dimethyl sulfoxide (DMSO, Sigma-Aldrich, St. Louis, MO, cat. D2650) at 800-fold the tested concentration and stored at -70 degrees C prior to their use. All drugs and investigational agents were tested over a range starting from a high concentration at or near the clinical Cmax and decreasing in half-log increments. If the clinical Cmax for an agent had not been determined, the highest concentration tested was 10 microM.
Cell Culture. All cells were maintained in an incubator at 37 degrees C and 5% CO2 with 95% humidity. The PDC lines were cultured according to standard operating procedures established by the NCI PDMR. All PDCs were thawed and cultured in Matrigel-coated flasks prepared with a working solution of 1X Ham's F-12 nutrient mix, without supplementation (Invitrogen, Waltham, MA, cat. 11765054), 100 U/mL penicillin-streptomycin (Invitrogen, cat. 15140122), and 2.5% Matrigel (Corning Inc., Corning, NY, cat. 354248) for the first three passages. The 362531-283-R-J2-PDC and 782815-120-R-J1-PDC lines were cultured in 6C/Colon 1B media, which includes advanced DMEM/F-12 (Thermo Fisher Scientific, cat. 12634028), 10 mM HEPES (Thermo Fisher Scientific, cat. 15630080), 1X GlutaMAX supplement (Thermo Fisher Scientific, cat. 35050061), 0.1 mg/mL primocin (InvivoGen, San Diego, CA, cat. ant-pm-2), 10% defined fetal bovine serum, heat inactivated (HyClone Laboratories Inc., Logan, UT, cat. SH30070.03HI), 50% L-WRN conditioned media (ATCC, cat. CRL-3276), 1.25 mM N-Acetyl-L-cysteine (Sigma-Aldrich, cat. A9165), 10 mM nicotinamide (Sigma-Aldrich, cat. N0636), 1X B-27 supplement (Thermo Fisher Scientific, cat. 17504044), 1X N-2 supplement (Thermo Fisher Scientific, cat. 17502048), 50 ng/mL human EGF (Thermo Fisher Scientific, cat. PHG0311), and 10 microM Y-27632 dihydrochloride (Tocris Bioscience, cat. 1254). The K12877-001-R-J1-PDC line was cultured in 6I media, which includes all 6C/Colon 1B media plus 10 ng/mL human FGF-10 (PeproTech, cat. 100-26), 1 ng/mL human FGF-2 (PeproTech, cat. 100-18B), 1 µM prostaglandin E2 (Tocris Bioscience, cat. 2296), […] hydrocortisone (Sigma-Aldrich, cat. H4001), and […] bovine insulin (Sigma-Aldrich, cat. I6634). The K86415-001-R-J1-PDC line was cultured in 6D media, which includes all 6C/Colon 1B media components minus the L-WRN conditioned media. The 485176-168-R4-J1-PDC was cultured in PANC media, which includes all 6C/Colon 1B media plus 100 ng/mL human FGF-10 (PeproTech, cat. 100-26), 500 nM SB-431542 (Selleckchem, cat. S1067), and 10 nM gastrin (Tocris Bioscience, cat. 3006). […]

Where [1] appears, read: compound alone, run of 07/15/2024.
Where [2] appears, read: compound alone, run of 07/09/2024.

Broadly, the viability, T/C is the ratio of treated to control. The term IC50 denotes the midpoint of a concentration-inhibition curve. With `C#Cc1c(F)ccc2cc(O)cc(-c3ncc4c(N5CC6CCC(C5)N6)nc(OCC56CCCN5CC(F)C6)nc4c3F)c12` (centres undefined), the viability, T/C (compound 0.0316 µM) was 108% [middle of 8 runs]; the viability, T/C (compound 0.1 µM) is 105% [middle of 8 runs]; the viability, T/C (compound 0.316 µM) was 99.5% [middle of 8 runs]; the viability, T/C (compound 1 µM) was 89.5% [middle of 8 runs]; the viability, T/C (compound 3.16 µM) was 63.2% [middle of 8 runs]; the viability, T/C (compound 10 µM) was 38.2% [middle of 7 runs]. Also, the IC50 under setting [1] was 5.77 µM [middle of 8 runs].
Turning to `C=CC(=O)N1CCN(c2nc(OCC3CCCN3C)nc3c(F)c(-c4nc(N)cc(C)c4C(F)(F)F)c(Cl)cc23)C(C)C1` (centres undefined), the viability, T/C runs as follows: (compound 0.00316 µM) 61.5% [middle of 12 runs]; (compound 0.01 µM) 48.4% [middle of 12 runs]; (compound 0.0316 µM) 39.9% [middle of 12 runs]; (compound 0.1 µM) 38.5% [middle of 12 runs]; (compound 0.316 µM) 38.3% [middle of 12 runs]; (compound 1 µM) 37.2% [middle of 12 runs]. The IC50 reads like this: under setting [1], 9 nM [middle of 8 runs]; (curve of compound) 8.5 nM and < 3.16 nM and 7.59 nM.
On to `C=CC(=O)Nc1cc(Nc2nccc(-c3cn(C)c4ccccc34)n2)c(OC)cc1N(C)CCN(C)C`, for which the viability, T/C is 109% (2×) and 103% and 107% (compound 0.00316 µM); 105% [middle of 4 runs] (compound 0.01 µM); 102% [middle of 4 runs] (compound 0.0316 µM); 107% [middle of 4 runs] (compound 0.316 µM). Also, the IC50 (curve of compound) was over 1000 nM.
`CC(C)NCC(C(=O)N1CCN(c2ncnc3c2C(C)CC3O)CC1)c1ccc(Cl)cc1` (centres undefined): the viability, T/C is 103% [middle of 4 runs] (compound 0.0316 µM); 97.1% [middle of 4 runs] (compound 0.1 µM); 102% [middle of 4 runs] (compound 0.316 µM); 93.3% [middle of 4 runs] (compound 1 µM); 73.3% [middle of 4 runs] (compound 3.16 µM). Moreover, where the note is “curve of compound”, the IC50 is > 10000 nM and 9190 nM and 9740 nM.
Take `CC(C)n1nc(-c2ccc3oc(N)nc3c2)c2c(N)ncnc21`: the viability, T/C (compound 0.000316 µM) was 102% and 105% (2×) and 106%; the viability, T/C (compound 0.00316 µM) is 88.6% [middle of 4 runs]; the viability, T/C (compound 0.01 µM) was 83% [middle of 4 runs]; the viability, T/C (compound 0.0316 µM) is 61.7% [middle of 4 runs]; the viability, T/C (compound 0.1 µM) is 53.8% [middle of 4 runs]. The IC50 (curve of compound) is 83.1 nM and > 100 nM and 67 nM.
In the case of `CC(Nc1ccc2c(c1)OCCn1cc(N3C(=O)OCC3C(F)F)nc1-2)C(N)=O` (centres undefined), the viability, T/C (compound 0.0316 µM) was 93.5% [middle of 4 runs]; the viability, T/C (compound 0.1 µM) was 89.5% [middle of 4 runs]; the viability, T/C (compound 0.316 µM) is 70.2% and 82.1% and 76.3% (2×); the viability, T/C (compound 1 µM) is 78.9% [middle of 4 runs]; the viability, T/C (compound 3.16 µM) was 71.8% [middle of 4 runs]; the viability, T/C (compound 10 µM) was 69.6% [middle of 4 runs]. Besides, where the note is “curve of compound”, the IC50 is over 10000 nM.
In the case of `CC1(C)CCC(Nc2ncc(C(F)(F)F)c(-c3c[nH]c4c(P(C)(C)=O)c(C#N)ccc34)n2)CN1` (centres undefined), the viability, T/C was 86.7% [middle of 4 runs] (compound 0.000949 µM); 73.2% [middle of 4 runs] (compound 0.003 µM); 51.7% [middle of 4 runs] (compound 0.00949 µM); 49.3% [middle of 4 runs] (compound 0.03 µM); 45.9% [middle of 4 runs] (compound 0.0949 µM); 48% [middle of 4 runs] (compound 0.3 µM).
For `CCN1CCN(Cc2ccc(Nc3ncc(F)c(-c4cc(F)c5nc(C)n(C(C)C)c5c4)n3)nc2)CC1`, the viability, T/C reads like this: (compound 0.00316 µM) 100% and 104% (2×) and 103%; (compound 0.01 µM) 92% [middle of 4 runs]; (compound 0.0316 µM) 78% [middle of 4 runs]; (compound 0.1 µM) 70.2% [middle of 4 runs]; (compound 0.316 µM) 58% [middle of 4 runs]. Also, under “curve of compound”, the half-inhibitory concentration (IC50) was > 1000 nM and 434 nM and 646 nM.
In the case of `CCc1c2c(nc3ccc(O)cc13)-c1cc3c(c(=O)n1C2)COC(=O)[C@]3(O)CC`, the viability, T/C reads like this: (compound 0.000949 µM) 91.1% [middle of 4 runs]; (compound 0.003 µM) 59.1% [middle of 4 runs]; (compound 0.00949 µM) 32.2% [middle of 4 runs]; (compound 0.03 µM) 14.4% [middle of 4 runs]; (compound 0.0949 µM) 8.18% [middle of 4 runs]; (compound 0.3 µM) 6.26% [middle of 4 runs]. Besides, the half-maximal inhibitory concentration (IC50) (curve of compound) was 4.43 nM [middle of 4 runs].
As for `CCn1c(-c2cc(N3CCN(C)CC3)cnc2C(C)OC)c2c3cc(ccc31)-c1csc(n1)CC(NC(=O)C1CC1C)C(=O)N1CCCC(N1)C(=O)OCC(C)(C)C2` (centres undefined), the viability, T/C was 45.5% [middle of 8 runs] (compound 0.000949 µM); 36.2% [middle of 8 runs] (compound 0.003 µM); 32.6% [middle of 8 runs] (compound 0.00949 µM); 29.9% [middle of 8 runs] (compound 0.03 µM); 22.1% [middle of 8 runs] (compound 0.0949 µM); 19.5% [middle of 8 runs] (compound 0.3 µM). Moreover, the half-inhibitory concentration (IC50) under setting [2] was under 0.949 nM.
Regarding `CCn1c(-c2cccnc2C(C)OC)c2c3cc(ccc31)N1CCOC(CC(NC(=O)C(C(C)C)N(C)C(=O)C3(F)CCN(C(=O)C#CC(C)(C)N(C)C)CC3)C(=O)N3CCCC(N3)C(=O)OCC(C)(C)C2)C1` (centres undefined), the viability, T/C (compound 0.000949 µM) was 32.4% [middle of 8 runs]; the viability, T/C (compound 0.00949 µM) is 30.6% [middle of 8 runs]; the viability, T/C (compound 0.03 µM) was 31.6% [middle of 8 runs]; the viability, T/C (compound 0.0949 µM) was 30.8% [middle of 8 runs]; the viability, T/C (compound 0.3 µM) is 28.1% [middle of 8 runs]. For the same compound, the half-maximal inhibitory concentration (IC50) under setting [2] was < 0.949 nM and 5.92 nM.
As to `C[C@@H](NC(=O)c1ncnc(N)c1Cl)c1ncc(C(=O)Nc2cc(C(F)(F)F)c(Cl)cn2)s1`, the viability, T/C (compound 0.0316 µM) was 107% [middle of 4 runs]; the viability, T/C (compound 0.1 µM) is 106% and 109% (2×) and 116%; the viability, T/C (compound 0.316 µM) is 108% [middle of 4 runs]; the viability, T/C (compound 1 µM) was 101% (2×) and 99.7% and 106%; the viability, T/C (compound 3.16 µM) was 90.6% [middle of 4 runs]. For the setting “curve of compound”, the IC50 is over 10000 nM.
In the case of `Nc1ccn(C2OC(CO)C(O)C2(F)F)c(=O)n1` (centres undefined), the viability, T/C is 77.2% [middle of 4 runs] (compound 0.00316 µM); 15.3% [middle of 4 runs] (compound 0.01 µM); 8.37% [middle of 4 runs] (compound 0.0316 µM); 7.36% [middle of 4 runs] (compound 0.1 µM); 7.15% [middle of 4 runs] (compound 0.316 µM); 10.5% [middle of 4 runs] (compound 1 µM). Moreover, the IC50 (curve of compound) is 5.35 nM [middle of 4 runs].
As for `O=C(c1ccc(F)c(F)c1Nc1ccc(I)cc1F)N1CC(O)([C@@H]2CCCCN2)C1`, the viability, T/C runs as follows: (compound 0.0316 µM) 68.2% [middle of 4 runs]; (compound 0.1 µM) 46.3% [middle of 4 runs]; (compound 0.316 µM) 34.2% [middle of 4 runs]; (compound 1 µM) 19.7% [middle of 4 runs]. Moreover, the 50% inhibitory concentration (IC50) (curve of compound) was 78.2 nM [middle of 4 runs].

Values taken from PubChem BioAssay AID2060885 (Molecular Pharmacology Branch, DTP, NCI, 2025).
